In the NIST ThermoML archive (doi:10.1016/j.jct.2011.12.024):

Legend:
[1] = refractive index (other wavelength) (dimensionless); settings: 101.33 kPa, Liquid, Wavelength=632.8 nm, Standard Abbe refractometry
[2] = 101.33 kPa, Liquid, Vibrating tube method
[3] = refractive index (other wavelength) (dimensionless); xn = mol fraction of the nth substance listed; settings: 101.33 kPa, Liquid, Wavelength=632.8 nm, Standard Abbe refractometry

CCCCCC [hexane]
[1]
Settings	refractive index
283.72 K	1.3789
284.52 K	1.3785
285.35 K	1.3781
286.21 K	1.3776
287.1 K	1.3771
287.94 K	1.3767
288.71 K	1.3762

COC(=O)CCCCC(=O)OC [dimethyl 1,6-hexanedioate]
Settings	mass density [kg/m3]	refractive index
[1], 283.48 K	–	1.4312
[1], 284.37 K	–	1.4309
[1], 285.28 K	–	1.4305
[1], 286.1 K	–	1.4302
[1], 286.92 K	–	1.4298
[1], 287.65 K	–	1.4296
[1], 288.49 K	–	1.4292
[2], 281.15 K	1073.09	–
[2], 282.15 K	1072.12	–
[2], 283.15 K	1071.14	–
[2], 284.15 K	1070.17	–
[2], 285.15 K	1069.19	–
[2], 286.15 K	1068.21	–
[2], 287.15 K	1067.24	–
[2], 288.15 K	1066.26	–
[2], 289.15 K	1065.29	–
[2], 290.15 K	1064.32	–
[2], 291.15 K	1063.34	–
[2], 292.15 K	1062.37	–
[2], 293.15 K	1061.39	–
[2], 294.15 K	1060.42	–
[2], 295.15 K	1059.45	–
[2], 296.15 K	1058.47	–
[2], 297.15 K	1057.5	–
[2], 298.15 K	1056.52	–
[2], 299.15 K	1055.55	–
[2], 300.15 K	1054.58	–
[2], 301.15 K	1053.6	–
[2], 302.15 K	1052.63	–
[2], 303.15 K	1051.65	–
[2], 304.15 K	1050.68	–
[2], 305.15 K	1049.7	–
[2], 306.15 K	1048.73	–
[2], 307.15 K	1047.75	–
[2], 308.15 K	1046.78	–

COC(=O)CCCCC(=O)OC [dimethyl 1,6-hexanedioate] + CCCCCC
[3], 289.28 K
Settings	refractive index
x1 = 0.101	1.3821
x1 = 0.202	1.3884
x1 = 0.301	1.3944
x1 = 0.394	1.3998
x1 = 0.5	1.4056
x1 = 0.599	1.4107
x1 = 0.706	1.416
x1 = 0.799	1.4203
x1 = 0.882	1.4239

CCCCCCC [heptane] + COC(=O)CCCCC(=O)OC
[3], x2 = 0
Settings	refractive index
289.62 K	1.3883
290.68 K	1.3878
291.71 K	1.3873
292.7 K	1.3868
293.74 K	1.3863
294.71 K	1.3858
295.77 K	1.3853
